# Measurements: patent US9573898B2, “Pyridine derivates and their use as Umami tastants” (Givaudan S.A., priority 2011, dated 2017)
# Columns and labels:
# Assay type in all cases: in vivo, human
# [1] = tested on: professional panel composed of 2 women and 3 men; assay: Tasting of NaCl solutions by a professional panel (Example 2)
# Experimental: Two solutions were prepared: • A—a solution of 0.3% NaCl and 0.05% MSG, • B—a solution of 0.3% NaCl and 1 ppm of 2-(2,3-dihydro-1H-inden-5-yloxy)-N-(pyridin-2-ylmethyl)acetamide.
# The samples were tasted by a professional panel composed of 2 women and 3 men aged between 30 and 60. The panel agreed that both solutions tasted umami.
# [2] = tested on: trained sensory panel composed of 20 women; assay: Potato chips tasting by a trained sensory panel (Example 6)
# Experimental: Plain potato chips were prepared. • One part was flavoured with 1.2% sodium chloride (sample A). • One part was flavoured with 1.2% sodium chloride and 0.3% mono sodium glutamate (sample B). • One part was flavoured with 1.2% sodium chloride and 5 ppm 2-(2,3-dihydro-1H-inden-5-yloxy)-N-(pyridin-2-ylmethyl)acetamide (sample C).
# The samples A, B and C were tasted by a trained sensory panel composed of 20 women aged between 30 and 60.
# [3] = tested on: professional panel composed of 2 women and 2 men; assay: Tasting of NaCl/ribonucleotide solutions by a professional panel (Example 4); conditions: 10 ppm compound in 0.5% NaCl and 0.002% ribonucleotide mixture vs the same solution without compound
# Experimental: Three solutions were prepared: • A—a solution of 0.5% NaCl and 0.002% Ribonucleotide mixture, • B—a solution of 0.5% NaCl, 0.002% Ribonucleotide mixture and 10 ppm of 2-(4-ethylphenoxy)-N-(pyridin-2-ylmethyl)acetamide, • C—a solution of 0.5% NaCl, 0.002% Ribonucleotide mixture and 10 ppm of 2-(4-isopropylphenoxy)-N-(pyridin-2-ylmethyl)acetamide.
# The samples were tasted by a professional panel composed of 2 women and 2 men aged between 30 and 60.
# [4] = tested on: professional panel composed of 2 women and 3 men; assay: Tasting of NaCl/MSG/ribonucleotide solutions by a professional panel (Example 3); conditions: solution B (0.5% NaCl, 0.05% MSG, 0.010% ribonucleotide mixture, 2 ppm compound) vs solution A (0.5% NaCl, 0.15% MSG, 0.025% ribonucleotide mixture)
# Experimental: Two solutions were prepared: • A—a solution of 0.5% NaCl, 0.15% MSG and 0.025% Ribonucleotide mixture, • B—a solution of 0.5% NaCl, 0.05% MSG, 0.010% Ribonucleotide mixture and 2 ppm of 2-(2,3-dihydro-1H-inden-5-yloxy)-N-(pyridin-2-ylmethyl)acetamide.
# The samples were tasted by a professional panel composed of 2 women and 3 men aged between 30 and 60.
# [5] = tested on: small group of flavourists (2 male, 2 female); assay: Tomato soup tasting by flavourists (Example 5); conditions: tomato soup containing 2 ppm compound vs reference soup
# Experimental: A tomato soup mix was prepared from 9.4 g of sodium chloride, 1 g of mono sodium glutamate, 0.08 g ribonucleotides (ex yeast), 32 g of tomato powder (ex Spreda), 25.1 g of glucose, 21 g of starch (Ultrasperse® 5 ex National Starch), 5 g of palm fat powder, 3 g of yeast powder, 1 g of onion powder, 0.15 g of carrot powder, 0.05 g of ground white pepper, 0.3 g celery extract powder, 0.05 g of ground laurel leaf powder, and 1.85 g of sucrose.
# 25 g of the well mixed ingredients was added to 250 g of boiling water and stirred until completely dissolved.
# The reference soup was compared with a batch of the same soup containing 2 ppm of 2-(2,3-dihydro-1H-inden-5-yloxy)-N-(pyridin-2-ylmethyl)acetamide.
# [6] = tested on: small group of flavourists (2 male, 2 female); assay: Diluted soy sauce tasting by flavourists (Example 7); conditions: sample A: Kikkoman soy sauce diluted 10 times, 1.5 ppm compound
# Experimental: Kikkoman® soy sauce was diluted 10 times with tap water. One part of the base soy sauce was taken as the reference. To another part (called sample A) 1.5 ppm of 2-(2,3-dihydro-1H-inden-5-yloxy)-N-(pyridin-2-ylmethyl)acetamide was added. To a third part (called sample B) 0.5 ppm of 2-(2,3-dihydro-1H-inden-5-yloxy)-N-(pyridin-2-ylmethyl)acetamide and 1 ppm of 1-(2-hydroxy-4-methoxyphenyl)-3-(pyridin-2-yl)propan-1-one were added.
# [7] = solution B (0.3% NaCl, 1 ppm compound) vs solution A (0.3% NaCl, 0.05% MSG)
structure (smiles),measurement,setting,value
"N[C@@H](CCC(=O)O)C(=O)[O-].[Na+] [MSG, mono sodium glutamate, reference compound]",umami taste of solution,[1]; solution A: 0.3% NaCl and 0.05% MSG,tasted umami
same,taste description,[2]; sample B: 1.2% sodium chloride and 0.3% mono sodium glutamate,salty and umami
CCc1ccc(OCC(=O)NCc2ccccn2)cc1 [2-(4-ethylphenoxy)-N-(pyridin-2-ylmethyl)acetamide],umami strength compared with solution A,[3],stronger umami strength
CC(C)c1ccc(OCC(=O)NCc2ccccn2)cc1 [2-(4-isopropylphenoxy)-N-(pyridin-2-ylmethyl)acetamide],umami strength compared with solution A,[3],stronger umami strength
"O=C(COc1ccc2c(c1)CCC2)NCc1ccccn1 [2-(2,3-dihydro-1H-inden-5-yloxy)-N-(pyridin-2-ylmethyl)acetamide]",further taste notes compared with solution A,[1]; [7],more succulence and sweetness and had more lingering notes
same,umami strength compared with solution A,[1]; [7],slightly stronger umami
same,umami taste of solution,[1]; solution B: 0.3% NaCl and 1 ppm compound,tasted umami
same,umami strength compared with solution A,[4],equal umami strength
same,complexity of taste compared with base soup,[5],tasted more complex
same,umami taste compared with base soup,[5],more umami
same,panel preference,"[2]; sample C (1.2% sodium chloride, 5 ppm compound) vs sample A (1.2% NaCl) and sample B (1.2% NaCl, 0.3% MSG)",preferred over the other two samples
same,taste description,[2]; sample C: 1.2% sodium chloride and 5 ppm compound,"salty, umami, long lasting, savory"
same,complexity compared with base soy sauce,[6],more complex
same,umami and sweet taste compared with base soy sauce,[6],more umami and slightly more sweet
